Values quoted from earlier work as cited in PMC9010257 (Clinical and Translational Science, 2022).

System: TNAP

SMILES: Cn1c(=O)c2[nH]cnc2n(C)c1=O [theophylline]
- inhibitory activity: weak inhibitory activity
- specificity for TNAP: not specific for TNAP

SMILES: c1ccc([C@H]2CN3CCSC3=N2)cc1 [levamisole]
- inhibitory activity: weak inhibitory activity
- specificity for TNAP: not specific for TNAP
